Source: US20150306232A1, “HYDROGELATORS COMPRISING D-AMINO ACIDS” (BRANDEIS UNIVERSITY, priority 2012, published 2015)

Columns and labels:
[1] = in vitro release of hydrogelators from hydrogels; assay type: physicochemical; conditions: 0.8 wt % hydrogel, PBS pH 7.4, 37° C., after 24 hours
Protocol: After studying their drug efficacies, the sustained release of Npx-containing hydrogelators from 0.8 wt % of hydrogels was studied. We incubated 100 μL of hydrogels at 37° C. for 24 hours with 100 μL of PBS buffer solution (pH 7.4), which is refreshed and monitored at 1 h, 2 h, 4 h, 8 h, 12 h, and 24 h. […] After 24 hours, hydrogel 1 slowly and steadily released 6.5% of the hydrogelator. […] Hydrogels 5 and 6 release 35.8% and 31.7% of hydrogelators after 24 h.
To illustrate the in vitro release profile of hydrogelators, we prepared 100 μL of the hydrogels formed by 1 (0.8 wt %, pH 4.0), 2 (0.8 wt %, pH 7.6), 3 (0.8 wt %, pH 7.6), 4 (0.8 wt %, pH 7.6), 5 (0.8 wt %, pH 7.0), and 6 (0.8 wt %, pH 7.0). With the addition of PBS buffer (100 μL, pH 7.4) onto the surface of hydrogels, the gels were incubated at 37° C. for 24 hours. The release solutions (100 μL) were taken and refreshed at […], 2 h, 4 h, 8 h, 12 h, and 24 h, which were detected by analytical HPLC at 276 nm for the quantities of released Npx containing hydrogelators 1, 2, 3, 4, 5, and 6.

[2] = rheological measurement of Npx containing hydrogels; assay type: physicochemical; conditions: hydrogel 0.8 wt %
Protocol: Rheological tests were conducted on TA ARES G2 rheometer with TA Orchestrator Software. 25 mm cone-plate was used during the experiment. 0.2 mL of hydrogel sample was placed on the cone-plate.
The measurement performs at the frequency of 6.28 rad/s (0.1 to 10% strain, frequency=10 rads^−1, 10 points per decade). Sweep mode is “log” and temperature was carried out at 25° C. The critical strain (γc) value was determined from the storage-strain profiles of the hydrogel sample. The strain applied to the hydrogel sample increased from 0.1 to 100% (10 rad/s and 25° C.). Over a certain strain, a drop in the elastic modulus was observed, and the strain amplitude at which storage moduli just begins to decrease by 5% from its maximum value was determined and taken as a measure of the critical strain of the hydrogels, which correspond to the breakdown of the cross-linked network in the hydrogel sample.
The frequency ranges from 200 rad/s to 0.1 rad/s, depending on the viscoelastic properties of each sample. A suitable strain was used to ensure the linearity of dynamic viscoelasticity.

[3] = test system: HeLa cells; test: MTT cytotoxicity of Npx containing hydrogelators; assay type: cell-based
Protocol: The HeLa cells in good condition were seeded into 96-well plate (2×10^5 cells/well) in 100 μL of MEM medium with 10% FBS. With 12 hours of incubation at 37° C. and 5% CO2, the HeLa cells were attached to bottom of 96-well plate. Then the medium was replaced by another 100 μL of growth medium that contained serial diluents of our compounds and the cells were incubated at 37° C. and 5% CO2 for additional 72 hours. The compounds were stocked at 10 μM in DMSO, followed by further dilutions with MEM medium. All of these serial diluents were adjusted to contain 0.5% of DMSO.

hydrogelator released from hydrogel [1]: 8.0%
critical strain [2]: 1.6%
storage modulus G′ ([2]; 6.28 rad/s): 6.2×10^2 Pa
SMILES: COc1ccc2cc([C@H](C)C(=O)N[C@H](Cc3ccccc3)C(=O)N[C@H](Cc3ccccc3)C(=O)N[C@H](Cc3ccc(O)cc3)C(=O)O)ccc2c1 [compound 2, Npx-ffy]
cell proliferation based on the numbers of HeLa cells [3]: no promotion of the cell proliferation
